This note sets out measurements from patent US20210187013A1, “Methods of Treating and Preventing Cancer by Disrupting the Binding of Copper in the Map Kinase Pathway” (DUKE UNIVERSITY, priority 2012, published 2021).

The target of assay [1] is T1, recombinant Mek1 (Rattus norvegicus, UniProt Q01986).
T1 construct: GST (N, cleaved yes); made in house; host or cells: E. coli BL21-CodonPlus (DE3)-RIPL
The assay can be described thus: Equilibrium dialysis copper binding stoichiometry of recombinant Mek1. How it is done: To investigate the nature of copper binding to Mek1, purified recombinant Mek1 was used for in vitro copper binding stoichiometry and binding affinity experiments. In vitro copper-binding experiments were carried out using the rat Mek1 coding sequence, which was PCR amplified using the pCMV-HAMek1 construct and cloned into the pGex6P-1 vector (GE Healthcare Life Sciences, Waukesha, United States). The resulting plasmid, pGex69-1Mek1, was transformed into BL21-CodonPlus (DE3)-RIPL cells from Stratagene. Recombinant, glutathione S-transferase (GST)-tagged Mek1 was purified by affinity chromatography using GSH agarose beads, followed by on-column Pre Scission protease cleavage of the GST tag. Further purification was achieved using MonoQ anion-exchange chromatography that served to remove the majority of the contaminating proteins, including cleaved GST tags that were not retained on the GSH column. […] Protein concentrations were determined by quantitative amino acid analysis with a Beckman 6300 analyzer (Beckman Coulter, Brea, United States) after hydrolysis in 5.7 N HCl at 110° C. in vacuo. Equilibrium dialysis experiments were conducted as described in Horng, Y. C. et al. (2006) J. Biol. Chem. 280:34113-34122. Recombinant Mek1 (2.5 to 10 μM in 20 mM Tris [pH 7.2]) was dialyzed, using a dialysis tube with 10-kDa molecular mass cutoff, against CuCl2 concentrations ranging from 0.25 to 15 μM in 20 mM Tris (pH 7.2)-100 mM NaCl overnight at 4° C. with slow stirring. Copper levels associated with Mek1 and the dialysate were quantified by inductively coupled plasma mass spectroscopy after digestion with 50% HNO3 at 65° C. In specific experiments, Cu^2+ was introduced as a Cu^2+-histidine complex (His complex) to preclude Cu^2+ hydrolysis and precipitation.
However, the inclusion of 0.1 mM EDTA reduced the Cu content to ˜1.5 molar equivalents. Dialysis of Mek1 against 2 μM Cu^2+-4 μM His complex, followed by a subsequent dialysis step in 0.1 mM EDTA, reduced the copper content to approximately 2 molar equivalents. Inclusion of […] when only Cu^2+ was present. […] In a separate series of equilibrium dialysis experiments in which the Cu^2+ content was varied from […] to 0.15 μM, the maximal copper content associated with Mek1 plateaued near ˜2.5 molar equivalent (FIG. 7B). […] Under these same conditions, Cu^2+ binding is observed with albumin, a known Cu^2+-binding protein, but not lysozyme or thyroglobulin.

In assay [2] the target is T2, recombinant GST-hErk2 (Homo sapiens, UniProt P28482).
T2 construct: made in house; host or cells: E. coli BL21(DE3)
T2 sequence (P28482 whole entry): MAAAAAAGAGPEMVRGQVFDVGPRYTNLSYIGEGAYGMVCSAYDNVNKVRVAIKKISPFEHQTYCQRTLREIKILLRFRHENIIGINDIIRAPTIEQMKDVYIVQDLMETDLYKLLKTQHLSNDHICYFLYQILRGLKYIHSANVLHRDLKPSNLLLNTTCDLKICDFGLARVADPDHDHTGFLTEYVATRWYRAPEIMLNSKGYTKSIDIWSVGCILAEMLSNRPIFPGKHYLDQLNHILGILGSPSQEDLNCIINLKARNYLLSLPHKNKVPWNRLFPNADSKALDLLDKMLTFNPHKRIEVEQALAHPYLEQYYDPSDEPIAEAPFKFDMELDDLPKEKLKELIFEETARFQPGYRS
The assay can be described thus: Erk2 in vitro kinase assay (phosphorylation of MBP). The assay is classed as biochemical. To be noted: increasing amounts of CuSO4; wild-type Erk2. The procedure: Human Erk2 and human Mek1 were obtained from Addgene and cloned into pGEX4T3 and pGEX6P1 from GE Life Sciences, respectively. Recombinant GST-human Erk2 (hErk2) and GST-human Mek1 (hMek1) were purified from BL21(DE3) bacteria as previously described. (see Heise, C. J. (2006) Methods 40:209-212; Levin-Salomon, V. et al. (2008) J. Biol. Chem. 283:34500-34510). Specifically, 500 mL of LB was inoculated with BL21(DE3) bacteria transformed with pGEX4T3-hErk2 or pGEX6P1-hMek1 and allowed to grow to an optical density of 0.6 at 600 nm (OD600). GST-hErk2 was induced by IPTG (0.4 mM) at 37° C. for 4 hours, while GST-hMek1 was induced by IPTG (1 mM) for 14 hour at 25° C. before collection by ultracentrifugation. […] and GST-hMek1 pellets were resuspended in 50 mL of 1×PBS-1% Triton X-100 plus a protease inhibitor tablet and sonicated for bacterial lysis. […] The concentration was determined using the Bio-Rad DC protein assay (Bio-Rad, Hercules, United States).
Modified version of Mek1 and Erk2 in vitro kinase assay were performed as described previously. […] Reactions were quenched with 5× Laemmli buffer, and a third of the reaction mixture was analyzed by SDS-PAGE via subsequent Western blotting with phosphospecific antibodies. […] Reactions were quenched with 5× Laemmli buffer, and a third of the reaction mixture was analyzed by SDS-PAGE via Western blotting with phosphospecific antibodies.

T1 sequence (Q01986 whole entry): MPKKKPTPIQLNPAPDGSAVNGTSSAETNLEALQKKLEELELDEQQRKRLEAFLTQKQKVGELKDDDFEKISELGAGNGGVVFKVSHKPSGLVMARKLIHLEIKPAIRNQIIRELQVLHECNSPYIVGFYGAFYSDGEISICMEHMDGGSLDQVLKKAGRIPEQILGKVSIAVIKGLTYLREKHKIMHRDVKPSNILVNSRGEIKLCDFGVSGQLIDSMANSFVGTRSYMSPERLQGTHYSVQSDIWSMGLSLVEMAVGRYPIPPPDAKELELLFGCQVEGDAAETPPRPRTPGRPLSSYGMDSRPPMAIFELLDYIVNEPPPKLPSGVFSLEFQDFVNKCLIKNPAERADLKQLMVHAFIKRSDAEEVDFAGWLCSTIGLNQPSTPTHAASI

On to `[Cl][Cu][Cl]` [Cu^2+, CuCl2], for which the “bound copper content of Mek1” value in assay [1] (dialysis against 2 μM Cu2+-4 μM His complex, then dialysis in 0.1 mM EDTA) is reported as “approximately 2 molar equivalents”; in assay [1] (dialysis against 2 μM Cu2+, as-isolated ratio ~0.5) it was roughly 2.5 molar equivalents; in assay [1] (dialysis with inclusion of 0.1 mM EDTA) it was roughly 1.5 molar equivalents; in assay [1] (only Cu2+ present (comparison with Zn(II) and Fe(II) inclusion)) it was 2.6. In addition, the “maximal copper content associated with Mek1 (plateau)” value in assay [1] (separate dialysis series, Cu2+ content varied from 0.11 to 0.15 μM) is roughly 2.5 molar equivalent. For the same molecule, the “Erk2 phosphorylation of MBP” value in assay [2] is “no effect”.
